Residues, ends and D or L forms follow the SMILES beside them.
Target: T1, fibronectin ED-B (Homo sapiens, UniProt P02751)
T1 construct: After transformation of pET28b vector carrying fibronectin ED-B into BL21 cells; His-tag (N); made in house; host or cells: E. coli BL21 (pET28b)
Assay: SPR (Biacore) affinity measurement to fibronectin ED-B
Format: binding
Experimental: Bipodal-peptide binder peptides specific to ED-B, VEGF or nAchR which were repetitively found in DNA sequencing were synthesized from Anigen Inc. (Korea). Affinity was measured using BlAcore X instrument (Biacore AB, Uppsala, Sweden). ED-B and nAchR were immobilized on streptavidin (SA) chip (Biacore) by injecting 2,000 RU biotinylated-EDB. VEGF was immobilized on CM5 chip (Biacore) using EDC/NHS. PBS (pH 7.4) was used as a running buffer. […].
. In addition to tryptophan zipper, GB1m3 and HP7 peptide as a type of other β-hairpin backbones were synthesized to contain N-terminal sequence (HCSSAV) and C-terminal sequence (IIRLEQ) of peptide 2 which is specifically bound to ED-B (Anigen, Korea). In other words, the sequence of bipodal-peptide binder in tryptophan zipper is […] (SEQ ID NO:21), and in GB1m3and HP7 are […] (SEQ ID NO:63) and […] (SEQ ID NO:64), respectively. Affinity of each peptide was measured using BIAcore X (Biacore AB, Uppsala, Sweden). […]
A leucine zipper motif as a structure stabilizing region instead of β-hairpin structure was synthesized to contain N-terminal sequence (HCSSAV) and C-terminal sequence (IIRLEQ) of peptide 2 which is specifically bound to ED-B, producing two peptides, […] […] Both peptides were formed as dimer, and their affinities were measured using BlAcore X (Biacore AB, Uppsala, Sweden). […]

T1 sequence (P02751 1271-1359 limits assumed): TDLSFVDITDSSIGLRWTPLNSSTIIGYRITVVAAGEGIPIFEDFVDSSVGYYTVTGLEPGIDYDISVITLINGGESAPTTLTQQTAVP

CC[C@H](C)[C@H](NC(=O)CNC(=O)[C@H](CCCCN)NC(=O)[C@H](Cc1c[nH]c2ccccc12)NC(=O)[C@@H](NC(=O)[C@H](Cc1c[nH]c2ccccc12)NC(=O)[C@H](CCCCN)NC(=O)CNC(=O)[C@H](CC(N)=O)NC(=O)[C@H](CCC(=O)O)NC(=O)[C@H](Cc1c[nH]c2ccccc12)NC(=O)[C@@H](NC(=O)[C@H](Cc1c[nH]c2ccccc12)NC(=O)[C@H](CO)NC(=O)CNC(=O)[C@@H](NC(=O)[C@H](C)NC(=O)[C@H](CO)NC(=O)[C@H](CO)NC(=O)[C@H](CS)NC(=O)[C@@H](N)Cc1c[nH]cn1)C(C)C)[C@@H](C)O)[C@@H](C)O)C(=O)N[C@H](C(=O)N[C@@H](CCCNC(=N)N)C(=O)N[C@@H](CC(C)C)C(=O)N[C@@H](CCC(=O)O)C(=O)N[C@@H](CCC(N)=O)C(=O)O)[C@@H](C)CC [Peptide 2 (fibronectin ED-B)] (H-HCSSAVGSWTWENGKWTWKGIIRLEQ-OH; N-terminus and C-terminus assumed)
Kd: 43 nM

— patent publication US10131693B2, “Bipodal-peptide binder” (GWANGJU INSTITUTE OF SCIENCE AND TECHNOLOGY, priority 2008, dated 2018)
